# Values quoted from earlier work, collected in patent publication US20160106677A1, “PHARMACEUTICAL COMPOSITION AND USES THEREOF” (Boehringer Ingelheim International GmbH, priority 2014, published 2016).
# System: HbA1c
# Conditions: metformin on its own, in the diabetic
smiles,measurement,value
CN(C)C(=N)N=C(N)N [metformin],average improvement in the HbA1c value,1.0-1.5%
